Data on one molecule can be found in US11207331B2, “Agents, compositions and methods for enhancing neurological function” (University of Southern California, priority 2007, dated 2021).

The structures appear in SMILES notation. Entries after “also recorded” stand apart in the source; their conditions may differ.

In one assay the test system is hippocampal neural cells. The assay can be described thus: Mitotic appearance (doublet cell body) of cultured hippocampal neural cells. Format: cell-based, rat. How it is done: Hippocampal neural cells were obtained from an embryonic day 18 rat hippocampus. The samples contained approximately 12,000 neurons/sample. The sample was 95% neuronal. No selection for neuronal subtypes was conducted. Hippocampal neurons were treated with 3α-hydroxy-5α-pregnan-20-one (THP). 3α-hydroxy-5α-pregnan-20-one (THP) was added to two samples containing hippocampal neural cells at a concentration of either 10 nanomolar (nM) and 100 nanomolar (nM). The cells were incubated for 24 hrs at 37° C. Neurons were grown in a defined medium, Neurobasal+B27 supplement in the absence (control) or presence of THP or other test molecule (experimental). The samples with added THP were compared with a control sample containing only hippocampal neural cells. Changes in the mitotic appearance of the neural cells were observed. A mitotic appearance of a particular neural cell is defined as a doublet form in the cell body of the neural cell. The doublet form is indicative of a neural cell undergoing mitosis.
The experiment described above was repeated only THP was added to three samples containing hippocampal neural cells at a concentration of 100 nanomolar (nM), 250 nM and 500 nM. The samples with added THP were compared with a control sample containing only hippocampal neural cells. […] Data are expressed as percent of mean+SEM,**p<0.01, ***p<. 001.

Assay [1] concerns mouse hippocampal neuron cell line (HT-22). As to the kind of experiment: FACS of MuLV-GFP infected HT-22 cells. In kind it is cell-based. To be noted: THP 250 nM. Here is the method: Having determined that THP increases the expression of the cell proliferating markers, a determination was sought as to whether the increase in cell proliferation markers translated into an increase in neuronal number. […] As shown in FIGS. 6A-6C, THP increases neuron number as assessed in MuLV-GFP infected mouse neurons. The effect of THP on HT-22 cells proliferation was detected on MuLV infected cells.
FIG. 6C summarizes the FACS results. V=vehicle; THP (250 nM).

Assay [2] relates to mouse dentate gyrus subgranular zone (SGZ). The assay can be described thus: Unbiased stereology of BrdU-positive cells in dentate gyrus subgranular zone. Format: in vivo. Conditions: for cell proliferation (normal BrdU+ cells) / pyknotic BrdU+ cell count after THP treatment: 24 hr; for pyknotic BrdU+ cell count after THP treatment: 6-months, 10 mg/kg s.c. How it is done:
Mice of each genotype and age received a subcutaneous (s.c.) injection of THP at a concentration of 10 mg/kg body weight (BW), an optimal dose of THP-[…] based on our previous studies. One hour after THP injection, mice were intraperitoneally (i.p.) injected with 100 mg/kg BW bromodeoxyuridine (BrdU). Two experimental paradigms were used: 1) THP treatment for behavior and cell survival assessment, in which animals received a single shot of THP/vehicle, followed by a 7-day neurogenesis and migration phase, followed by a 5-day trace-conditioning test followed 9 days later by a 1-day memory test, and scarified 21 days after a single THP injection at which time FACS analysis of BrdU positive cells was performed to assess cell survival; 2).
Acute THP treatment for cell proliferation assessment, in which animals received a single injection of THP/vehicle and were sacrificed 24 hr later followed by quantitative unbiased stereology of BrdU positive cells.
Mice were sacrificed 24 h after THP administration for cell proliferation assessment or at the end of memory test for cell survival assessment. On the day of sacrifice mice were deeply anesthetized with a combination of ketamine (100 mg/kg) and xylazine (10 mg/kg), and perfused with PBS. Brains were dissected into two hemispheres, and one hemisphere was fixed immediately in cold 4% paraformaldehyde and was used for either stereological analysis (cell proliferation) or FACS analysis (cell survival).
The fixed hemispheres from cell proliferation assessment experiment were sectioned into a series of 40 μm coronal sections and every sixth section in the series was processed for BrdU histolabeling by NeuroScience Associates (Knoxville, Tenn.). Prior to labeling, all slides were coded and the codes were not broken until analyses were completed. The number of BrdU labeled cells was determined by unbiased stereology (optical dissector). Systematic samplings of unbiased counting frames of 50 μm on a side with a 200 μm matrix spacing were produced using a semiautomatic stereology system (Zeiss Axiovert 200M fluorescent microscope as part of the 3iMarianas digital microscopy and a 60×SPlan apochromat oil objective (1.4 numerical aperture). Positive cells that intersected the uppermost focal (exclusion) plane and those that intersected the exclusion boundaries of the unbiased sampling frame were excluded from analysis. Cells that met analysis criteria through a 20 μm axial distance were counted according to the optical dissector principle. The granule cell layer reference volume was determined by summing the traced SGZ, granule cell areas for each section multiplied by the distance between sections sampled. The mean granule cell number per dissector volume was multiplied by the reference volume to estimate the total granule cell number. The stereologically determined number of BrdU-positive cells was related to the granule cell layer sectional volume and multiplied by the reference volume to estimate the total number of BrdU-positive cells.
Total BrdU labeled cells were quantified for 3, 6, 9, and 12 months non-Tg and 3×TgAD male mice. The serial brain sections were collected to analyze the effects of THP on BrdU incorporation by unbiased stereological analysis. Data are represented as mean±SEM (n≥4 in each group). […] PCNA, an S-phase cell cycle marker, was increased in THP compared to vehicle control in 3×TgAD mice in three month (FIG. 12B) and six month (FIG. 12C) mice as shown by immunoblot.
To decipher the THP effect in neurogenesis, cell proliferation assessment experiments were conducted. Following animal sacrifice and brain section staining, unbiased stereology was conducted in both non-Tg and 3×TgAD mice at three different ages.

Assay [3] deals with hippocampus of 3×TgAD mice. The assay can be described thus: Long-term treatment with BrdU, IdU and CldU labelling. In kind it is in vivo, mouse. Conditions: 10 mg/kg once a week for 6 months, begun at 3 or 6 months of age. How it is done:
In yet another study, THP (10 mg/kg once a week for 6 months) was administered to mice beginning at 3 months or 6 months of age. The cell proliferation marker, 5-bromodeoxyuridine (BrdU) was injected (100 mg/kg) one hour after initial THP treatment and once per day for the next four days to detect cell proliferation and cell survival over the six month treatment period. After 3 months treatment, the mice were injected 5 times with another nucleotide analog iododeoxyuridine (one per day). After 6 months treatment, the mice were injected with chlorodeoxyuridine (CldU) 5 times (once per day). Using specific antibodies, BrdU, IdU, and CldU incorporated cells will identify the 6 month survival, 3 month survival, and newly formed cells respectively. The mice were then sampled for biochemical, IHC, and flow cytometry assay. The results from mice with THP treatment initiated at 3 months old are shown in FIGS. 20B and 20C and initiated at 6 months old are shown in FIGS. 20D and 20E. The aim was to determine whether or not desensitization to THP was occurring.

With `CC(=O)[C@H]1CC[C@H]2[C@@H]3CC[C@H]4C[C@H](O)CC[C@]4(C)[C@H]3CC[C@]12C` [THP, 3α-hydroxy-5α-pregnan-20-one], the “fold increase in the mitotic phenotype of the neural cells vs control” value with hippocampal neural cells (10 nM or 100 nM THP, 24 hrs) is reported as roughly 2 fold; in the assay with hippocampal neural cells (100, 250 and 500 nM THP), 2-3 fold. Moreover, the “concentration with greatest induction of the mitotic phenotype” value in the assay on hippocampal neural cells (100, 250, 500 nM tested) is on record as 500 nm. The “increase in dividing cell number” value in assay [1] is 22%. For the same molecule, in assay [2] (3×TgAD mice, 3 months, 10 mg/kg BW s.c., 24 hours), the “increase in BrdU incorporation vs vehicle control group” value is 55+18%. The “cell proliferation (normal BrdU+ cells)” value in assay [2] (3×TgAD mice, 6, 9, 12 months) is listed as “no significant effect in cell proliferation”; in assay [2] (non-Tg mice, 6, 9, 12 months), “no effect on cell proliferation”. For the same molecule, the “pyknotic BrdU+ cell count after THP treatment” value in assay [2] (3×TgAD mice) came out at 48.0±48.00; in assay [2] (non-Tg mice), 576.0±185.49. The “neurogenic deficit of 3×TgAD mice vs non-Tg (total BrdU cells)” value in assay [2] (3×TgAD mice, one s.c. dose, 24 hours) was “restored proliferation to that of normal nontransgenic mice; also recorded: reversed the neurogenic deficit of the 3×TgAD mouse SGZ and restored normal levels of neurogenesis”. The “pyknotic cell population, vehicle vs THP” value in assay [2] (non-Tg and 3×TgAD mice, 9- and 12-months) is listed as “no difference”. For the same molecule, in assay [3], the “responsiveness of the brain (desensitization)” value was “still responsive to THP at 3 and 6 months”.
